Experimental data from patent US12516289B2, “Methods of producing T memory stem cell populations” (The United States of America, as represented by the …, priority 2012, dated 2026).

System: CD45RO−CD62L+ naïve CD8+ T cells
Assay: Activation of naïve CD8+ T cells in the presence of the GSK-3β inhibitor, phenotypic analysis
Assay type: cell-based, human
Method: Candidate human TSCM cells were generated by activating CD45RO^−CD62L^+ naïve CD8^+ T cells in the presence of the GSK-3β inhibitor TWS119. […] To determine whether the CD45RO^−CD62L^+ T cells generated in the presence of TWS119 were truly naïve cells or had acquired memory traits, phenotypic analysis was performed using established markers of T cell activation and differentiation (Appay et al., Cytometry A 73: 975-983 (2008)).

In the case of `Nc1cccc(-c2cc3c(Oc4cccc(O)c4)ncnc3[nH]2)c1` [TWS119, 3-[[6-(3-aminophenyl)-7H-pyrrolo[2,3-d]pyrimidin-4-yl]oxy]phenol], the “phenotype of T cells after culture (CD45RO/CD62L)” value (naïve CD8+ T cells activated in presence of TWS119, after 2 weeks) is reported as “majority of T cells cultured with TWS119 retained a CD45RO^−CD62L^+ naïve-like phenotype” and the “expression of CD95 and IL-2Rβ by TWS119-generated naïve-like T cells” value (phenotypic analysis, compared with TN and memory T cells) is reported as “expressed levels of CD95 and IL-2Rβ similar to those observed in memory T cells”.
